Patent US20050090529A1, “3,5 Disubstituted indazole compounds with nitrogen-bearing 5-membered heterocycles, pharmaceutical compositions, and methods for mediating or inhibiting cell proliferation” (PFIZER INC, priority 2003, published 2005)
Values after ≈ are worked out from the molar mass of the structure shown. Like-named read-outs stand apart in the source and are kept apart here.

What was measured:
[1] = Measurement of kinetic solubility; settings: pH 6.5, aqueous buffer, kinetic from dmso stock
Experimental: Kinetic solubility was determined with a […] stock solution from the compound(s) of interest. […] Samples and standards were then centrifuged and an aliquot was removed for HPLC analysis. Samples and standards were analyzed by HPLC and a final concentration for the sample was determined based on a one-point calibration curve from the corresponding standard. Results were reported as μg's/mL.

[2] = molecular target: T1, CDK2/Cyclin A (Homo sapiens, UniProt P24941); experiment: Inhibition of CDK2/Cyclin A retinoblastoma kinase activity (apparent Ki); type: biochemical
T1 construct: made in house; host or cells: CDK2: insect cells (baculovirus); cyclin A: E. coli
Outline: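 Cyclin A complex (proteolyzed cyclin) purified by gel filtration; enzyme-initiated reactions ran 20 min at 30 °C, transferring radiolabelled phosphate from [32P]/[33P]ATP onto a protein substrate, stopped with EDTA and quantified by phosphorimager.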

Structure (SMILES) | solubility ([1]; 100 mM sodium phosphate buffer) | Ki ([2]; read-out: CDK2 Ki) | Ki [2] | solubility [1]
CCNCc1cncc(-c2ccc3[nH]nc(-c4ncc[nH]4)c3c2)c1CC [Example 47, Ethyl-{4-ethyl-5-[3-(1H-imidazol-2-yl)-1H-indazol-5-yl]-pyridin-3-ylmethyl}-amine] | > 120 µg/mL | < 50 nM | – | –
Cc1c(CNC(C)C)cncc1-c1ccc2[nH]nc(-c3ncc[nH]3)c2c1 [Example 48, {5-[3-(1H-Imidazol-2-yl)-1H-indazol-5-yl]-4-methyl-pyridin-3-ylmethyl}-isopropyl-amine] | > 120 µg/mL | < 50 nM | – | –
CCNCc1cncc(-c2ccc3[nH]nc(-c4nc(C(=O)NCc5cccnc5)c[nH]4)c3c2)c1C [Example 49, 2-(5-{5-[(ethylamino)methyl]-4-methylpyridin-3-yl}-1H-indazol-3-yl)-N-(pyridin-3-ylmethyl)-1H-imidazole-5-carboxamide] | > 120 µg/mL | < 50 nM | – | –
CCNCc1cncc(-c2ccc3[nH]nc(-c4nc(C(=O)NC5CCCCC5)c[nH]4)c3c2)c1C [Example 50, N-cyclohexyl-2-(5-{5-[(ethylamino)methyl]-4-methylpyridin-3-yl}-1H-indazol-3-yl)-1H-imidazole-5-carboxamide] | 20 to 120 µg/mL (≈ 43.7 to 262 µM) | < 50 nM | – | –
CCNCc1cncc(-c2ccc3[nH]nc(-c4ncc(C(=O)N[C@@H]5CCc6ccccc65)[nH]4)c3c2)c1C [Example 51, N-[(1R)-2,3-dihydro-1H-inden-1-yl]-2-(5-{5-[(ethylamino)methyl]-4-methylpyridin-3-yl}-1H-indazol-3-yl)-1H-imidazole-5-carboxamide] | 20 to 120 µg/mL (≈ 40.7 to 244 µM) | < 50 nM | – | –
CCNCc1cncc(-c2ccc3[nH]nc(-c4ncc(C(=O)N[C@H]5CCc6ccccc65)[nH]4)c3c2)c1C [Example 53, N-[(1S)-2,3-dihydro-1H-inden-1-yl]-2-(5-{5-[(ethylamino)methyl]-4-methylpyridin-3-yl]-1H-indazol-3-yl)-1H-imidazole-5-carboxamide] | 20 to 120 µg/mL (≈ 40.7 to 244 µM) | < 50 nM | – | –
CCNCc1cncc(-c2ccc3[nH]nc(-c4ncc(C(=O)NCCN(C)C)[nH]4)c3c2)c1C [Example 54, N-[2-(dimethylamino)ethyl]-2-(5-{5-[(ethylamino)methyl]-4-methylpyridin-3-yl}-1H-indazol-3-yl)-1H-imidazole-5-carboxamide] | > 120 µg/mL | < 50 nM | – | –
CCNCc1cncc(-c2ccc3[nH]nc(-c4ncc(C(=O)N5CCOCC5)[nH]4)c3c2)c1C [Example 55, N-[(4-methyl-5-{3-[5-(morpholin-4-ylcarbonyl)-1H-imidazol-2-yl]-1H-indazol-5-yl}pyridin-3-yl)methyl]ethanamine] | > 120 µg/mL | < 50 nM | – | –
CCNCc1cncc(-c2ccc3[nH]nc(-c4ncc(C(=O)N5CCCC5)[nH]4)c3c2)c1C [Example 61, N-[(4-methyl-5-{3-[5-(pyrrolidin-1-ylcarbonyl)-1H-imidazol-2-yl]-1H-indazol-5-yl}pyridin-3-yl)methyl]ethanamine] | 20 to 120 µg/mL (≈ 46.6 to 279 µM) | < 50 nM | – | –
CCNCc1cncc(-c2ccc3[nH]nc(-c4nc(C(=O)N5CCCCC5)c[nH]4)c3c2)c1C [Example 62, N-[(4-methyl-5-{3-[5-(piperidin-1-ylcarbonyl)-1H-imidazol-2-yl]-1H-indazol-5-yl}pyridin-3-yl)methyl]ethanamine] | > 120 µg/mL | < 50 nM | – | –
CCNCc1cncc(-c2ccc3[nH]nc(-c4nc(C(=O)NCC)c[nH]4)c3c2)c1C [Example 63, N-ethyl-2-(5-{5-[(ethylamino)methyl]-4-methylpyridin-3-yl}-1H-indazol-3-yl)-1H-imidazole-5-carboxamide] | > 120 µg/mL | < 50 nM | – | –
CCNCc1cncc(-c2ccc3[nH]nc(-c4nc(C(=O)NC(C)C)c[nH]4)c3c2)c1C [Example 64, 2-(5-{5-[(ethylamino)methyl]-4-methylpyridin-3-yl}-1H-indazol-3-yl)-N-isopropyl-1H-imidazole-5-carboxamide] | > 120 µg/mL | < 50 nM | – | –
CCNCc1cncc(-c2ccc3[nH]nc(-c4nc(C(=O)NCCOC)c[nH]4)c3c2)c1C [Example 65, 2-(5-{5-[(ethylamino)methyl]-4-methylpyridin-3-yl}-1H-indazol-3-yl)-N-(2-methoxyethyl)-1H-imidazole-5-carboxamide] | > 120 µg/mL | – | < 50 nM | –
CCNCc1cncc(-c2ccc3[nH]nc(-c4ncc(C(=O)N5CCN(Cc6ccccc6)CC5)[nH]4)c3c2)c1C [Example 66, N-{[5-(3-{5-[(4-benzylpiperazin-1-yl)carbonyl]-1H-imidazol-2-yl}-1H-indazol-5-yl)-4-methylpyridin-3-yl]methyl}ethanamine] | – | < 50 nM | – | > 120 µg/mL
CCNCc1cncc(-c2ccc3[nH]nc(-c4nc(C(=O)NC5CC6CCC(C5)N6)c[nH]4)c3c2)c1C (stereo not shown) [Example 77, N-8-azabicyclo[3.2.1]oct-3-yl-2-(5-{5-[(ethylamino)methyl]-4-methylpyridin-3-yl}-1H-indazol-3-yl)-1H-imidazole-5-carboxamide] | > 120 µg/mL | > 200 nM | – | –

Further lines, with some results ahead:

solubility ([1]; 100 mM sodium phosphate buffer) | Ki ([2]; read-out: CDK2 Ki) | Structure (SMILES) | Ki [2] | solubility [1]
20 to 120 µg/mL (≈ 38.6 to 232 µM) | < 50 nM | CCNCc1cncc(-c2ccc3[nH]nc(-c4ncc(C(=O)N5CC=C(c6ccccc6)CC5)[nH]4)c3c2)c1C [Example 67, N-{[4-methyl-5-(3-{5-[(4-phenyl-3,6-dihydropyridin-1(2H)-yl)carbonyl]-1H-imidazol-2-yl}-1H-indazol-5-yl)pyridin-3-yl]methyl}ethanamine] | – | –
< 20 µg/mL | < 50 nM | CCNCc1cncc(-c2ccc3[nH]nc(-c4ncc(C(=O)N5Cc6ccccc6C5)[nH]4)c3c2)c1C [Example 68, N-[(5-{3-[5-(1,3-dihydro-2H-isoindol-2-ylcarbonyl)-1H-imidazol-2-yl]-1H-indazol-5-yl}-4-methylpyridin-3-yl)methyl]ethanamine] | – | –
20 to 120 µg/mL (≈ 35.9 to 216 µM) | < 50 nM | CCNCc1cncc(-c2ccc3[nH]nc(-c4ncc(C(=O)N5CCN(c6ccc(F)cc6F)CC5)[nH]4)c3c2)c1C [Example 69, N-({5-[3-(5-{[4-(2,4-difluorophenyl)piperazin-1-yl]carbonyl}-1H-imidazol-2-yl)-1H-indazol-5-yl]-4-methylpyridin-3-yl}methyl)ethanamine] | – | –
20 to 120 µg/mL (≈ 40.2 to 241 µM) | < 50 nM | CCNCc1cncc(-c2ccc3[nH]nc(-c4ncc(C(=O)N5CCC6CCCCC6C5)[nH]4)c3c2)c1C (stereo not shown) [Example 71, N-[(4-methyl-5-{3-[5-(octahydroisoquinolin-2(1H)-ylcarbonyl)-1H-imidazol-2-yl]-1H-indazol-5-yl}pyridin-3-yl)methyl]ethanamine] | – | –
< 20 µg/mL | < 50 nM | CCNCc1cncc(-c2ccc3[nH]nc(-c4ncc(C(=O)NC5C6CC7CC(C6)CC5C7)[nH]4)c3c2)c1C (stereo not shown) [Example 72, N-2-adamantyl-2-(5-{5-[(ethylamino)methyl]-4-methylpyridin-3-yl}-1H-indazol-3-yl)-1H-imidazole-5-carboxamide] | – | –
> 120 µg/mL | < 50 nM | CCNCc1cncc(-c2ccc3[nH]nc(-c4nc(C(=O)N5CCCCCC5)c[nH]4)c3c2)c1C [Example 74, N-[(5-{3-[5-(azepan-1-ylcarbonyl)-1H-imidazol-2-yl]-1H-indazol-5-yl}-4-methylpyridin-3-yl)methyl]ethanamine] | – | –
> 120 µg/mL | < 50 nM | CCNCc1cncc(-c2ccc3[nH]nc(-c4ncc(C(=O)N[C@H]5CCCCNC5=O)[nH]4)c3c2)c1C [Example 75, 2-(5-{5-[(ethylamino)methyl]-4-methylpyridin-3-yl}-1H-indazol-3-yl)-N-[(3S)-2-oxoazepan-3-yl]-1H-imidazole-5-carboxamide] | – | –
> 120 µg/mL | 50 to 200 nM | CCNCc1cncc(-c2ccc3[nH]nc(-c4nc(C(=O)NC5CCNCC5)c[nH]4)c3c2)c1C [Example 76, 2-(5-{5-[(ethylamino)methyl]-4-methylpyridin-3-yl}-1H-indazol-3-yl)-N-piperidin-4-yl-1H-imidazole-5-carboxamide] | – | –
> 120 µg/mL | < 50 nM | CCNCc1cncc(-c2ccc3[nH]nc(-c4ncc(C(=O)N5CCN(Cc6ccccn6)CC5)[nH]4)c3c2)c1C [Example 83, N-({4-methyl-5-[3-(5-{[4-(pyridin-2-ylmethyl)piperazin-1-yl]carbonyl}-1H-imidazol-2-yl)-1H-indazol-5-yl]pyridin-3-yl}methyl)ethanamine] | – | –
> 120 µg/mL | < 50 nM | CCNCc1cncc(-c2ccc3[nH]nc(-c4ncc(C(=O)N5CCC(Cc6ncccn6)CC5)[nH]4)c3c2)c1C [Example 85, N-({4-methyl-5-[3-(5-{[4-(pyrimidin-2-ylmethyl)piperidin-1-yl]carbonyl}-1H-imidazol-2-yl)-1H-indazol-5-yl]pyridin-3-yl}methyl)ethanamine] | – | –
> 120 µg/mL | 50 to 200 nM | CCNCc1cncc(-c2ccc3[nH]nc(-c4nc(C(=O)O)c[nH]4)c3c2)c1C [Example 86, 2-(5-{5-[(ethylamino)methyl]-4-methylpyridin-3-yl}-1H-indazol-3-yl)-1H-imidazole-5-carboxylic acid] | – | –
> 120 µg/mL | 50 to 200 nM | CCNCc1cncc(-c2ccc3[nH]nc(-c4cnco4)c3c2)c1C [Example 87, N-({4-methyl-5-[3-(1,3-oxazol-5-yl)-1H-indazol-5-yl]pyridin-3-yl}methyl)ethanamine] | – | –
> 120 µg/mL | < 50 nM | CCNCc1cncc(-c2ccc3[nH]nc(-c4cnc[nH]4)c3c2)c1C [Example 90, N-({5-[3-(1H-imidazol-5-yl)-1H-indazol-5-yl]-4-methylpyridin-3-yl}methyl)ethanamine] | – | –
20 to 120 µg/mL (≈ 66.6 to 400 µM) | < 50 nM | c1c[nH]c(-c2n[nH]c3ccc(-c4cncc5[nH]ccc45)cc23)n1 [Example 94, 3-(1H-Imidazol-2-yl)-5-(1H-pyrrolo[2,3-c]pyridin-4-yl)-1H-indazole] | – | –
